Like-named read-outs stand apart in the source and are kept apart here.
Assays:
PAK3 = molecular target: T1, PAK3 (Homo sapiens, UniProt O75914); test: HotSpot kinase profiling; format: biochemical
T1 construct: purchased Reaction Biology Corp
Summary of the method: (§1)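 Radio-isotope P81 filtration format. Substrate + required cofactors in reaction buffer, kinase added, 2 h RT. Stop, wash with 0.1% phosphoric acid, detect. % inhibition vs DMSO; mean of duplicates where repeated.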

LKB1 = molecular target: T2, LKB1 (Homo sapiens, UniProt Q15831); test: HotSpot kinase profiling; format: biochemical
T2 construct: purchased Reaction Biology Corp
T2 sequence (Q15831 1-433): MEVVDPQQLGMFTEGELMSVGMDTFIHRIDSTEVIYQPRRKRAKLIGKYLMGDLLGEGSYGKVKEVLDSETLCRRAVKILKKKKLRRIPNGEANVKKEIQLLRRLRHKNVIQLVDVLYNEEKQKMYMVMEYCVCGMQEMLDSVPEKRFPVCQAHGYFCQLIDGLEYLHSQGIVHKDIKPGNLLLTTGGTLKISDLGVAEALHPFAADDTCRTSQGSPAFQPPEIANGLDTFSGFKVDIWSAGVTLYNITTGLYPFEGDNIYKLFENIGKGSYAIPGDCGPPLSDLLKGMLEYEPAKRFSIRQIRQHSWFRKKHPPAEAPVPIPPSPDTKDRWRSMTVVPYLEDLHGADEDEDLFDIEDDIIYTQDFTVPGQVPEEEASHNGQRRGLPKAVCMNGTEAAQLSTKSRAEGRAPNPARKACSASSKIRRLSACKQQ
T2 sequence (Q7RTN6 1-431 partner): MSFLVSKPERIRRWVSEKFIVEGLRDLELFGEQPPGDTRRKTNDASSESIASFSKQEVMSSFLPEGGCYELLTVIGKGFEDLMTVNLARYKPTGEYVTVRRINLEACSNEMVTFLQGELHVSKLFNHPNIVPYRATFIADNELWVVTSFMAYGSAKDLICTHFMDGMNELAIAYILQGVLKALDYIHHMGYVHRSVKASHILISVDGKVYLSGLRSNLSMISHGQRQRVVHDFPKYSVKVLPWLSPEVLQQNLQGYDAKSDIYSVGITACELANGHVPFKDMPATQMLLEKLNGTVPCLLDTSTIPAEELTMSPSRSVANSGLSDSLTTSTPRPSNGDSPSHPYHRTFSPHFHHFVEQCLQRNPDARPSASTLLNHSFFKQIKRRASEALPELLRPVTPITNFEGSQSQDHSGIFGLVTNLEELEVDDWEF
T2 sequence (Q9Y376 1-341 partner): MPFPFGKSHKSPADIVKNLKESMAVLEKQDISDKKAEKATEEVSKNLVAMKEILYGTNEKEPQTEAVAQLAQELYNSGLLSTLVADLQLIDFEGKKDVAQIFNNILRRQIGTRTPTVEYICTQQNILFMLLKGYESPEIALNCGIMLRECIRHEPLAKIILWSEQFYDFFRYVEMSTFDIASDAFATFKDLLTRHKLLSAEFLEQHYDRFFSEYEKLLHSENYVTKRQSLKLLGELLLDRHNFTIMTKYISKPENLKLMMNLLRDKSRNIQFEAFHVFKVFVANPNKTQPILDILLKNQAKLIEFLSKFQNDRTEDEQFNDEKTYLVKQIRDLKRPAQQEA
Summary of the method: as §1

[1] = read-out: % Enzyme Activity (relative to DMSO controls) Run 1
[2] = read-out: % Enzyme Activity (relative to DMSO controls) Run 2

T1 sequence (O75914 whole entry): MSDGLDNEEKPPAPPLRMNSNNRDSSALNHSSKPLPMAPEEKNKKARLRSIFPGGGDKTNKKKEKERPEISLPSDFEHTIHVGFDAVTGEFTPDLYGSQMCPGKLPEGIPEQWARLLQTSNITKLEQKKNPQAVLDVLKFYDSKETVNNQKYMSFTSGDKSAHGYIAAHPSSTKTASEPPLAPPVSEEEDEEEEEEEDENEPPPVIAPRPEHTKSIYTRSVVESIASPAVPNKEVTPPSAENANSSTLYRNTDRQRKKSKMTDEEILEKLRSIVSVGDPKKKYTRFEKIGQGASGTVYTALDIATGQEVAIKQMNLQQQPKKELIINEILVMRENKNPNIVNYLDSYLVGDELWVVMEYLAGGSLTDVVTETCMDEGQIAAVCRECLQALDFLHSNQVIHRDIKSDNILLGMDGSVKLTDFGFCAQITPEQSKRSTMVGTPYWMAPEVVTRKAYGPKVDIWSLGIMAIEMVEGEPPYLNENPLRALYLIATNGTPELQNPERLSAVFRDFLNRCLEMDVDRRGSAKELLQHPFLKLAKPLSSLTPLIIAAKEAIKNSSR

In the case of `C=CC(=O)Nc1cccc(Nc2nc(Nc3ccc(OCCOC)c(F)c3)ncc2F)c1` [Compound 2], the inhibition at 3 µM (PAK3) is reported as 6.46%, the remaining activity at 3 µM (PAK3; [1]) is reported as 91.9% and the remaining activity at 3 µM (PAK3; [2]) is reported as 95.2%. For the same compound, the inhibition at 3 µM (LKB1) was 2.41%, the remaining activity at 3 µM (LKB1; [1]) was 99.2% and the remaining activity at 3 µM (LKB1; [2]) was 95.9%.

Reference: US9492471B2, “Methods of treating a disease or disorder associated with Bruton'S Tyrosine Kinase” (Celgene Avilomics Research, Inc., priority 2013, dated 2016)
